In US20080286394A1, “NOVEL HERBAL FORMULATION AS BRAIN TONIC” (priority 2003, published 2008):
Several values for one entry are separate records, joined by “and”; a condition that tells them apart may be missing. Equal entries are not always repeated. Marks after values point to notes of the source that are not given here.

System: impairment of memory acquisition in step-down test in mice
Experiment: Passive avoidance task (step-down test), scopolamine-induced impairment of memory acquisition
Format: in vivo
Details: scopolamine 0.4 mg/kg alone (amnesia-inducing agent)

CN1[C@@H]2C[C@@H](OC(=O)[C@H](CO)c3ccccc3)C[C@H]1[C@@H]1O[C@@H]12 [Scopalamine, scopolamine]
Latency (sec): 7.7 ± 0.04^c sec and 7.8 ± 0.03^c sec and 7.8 ± 0.04^c sec
No of mistakes: 66.8 ± 8.9^c and 65.3 ± 8.6^c and 69.8 ± 8.9^c
